Experimental data as given in patent US8623864B2, “Thioridazine and derivatives thereof for reversing anti-microbial drug-resistance” (NOA Sic Aps, priority 2003, dated 2014).
Like-named read-outs stand apart in the source and are kept apart here.

Assays:
[1] = test system: tumour cell lines; conditions: Akiyama et al. 1986; cited from earlier work
[2] = test system: human Enterococcus faecalis; test: Microdilution checkerboard, antibiotic plus resistance modifier; format: cell-based; conditions: Enterococcus faecalis, drug alone
[3] = test system: Enterococcus faecalis; test: as above; format: cell-based
[4] = test system: Mycobacterium tuberculosis; conditions: Ordway et al. 2003; cited from earlier work
[5] = test system: a known bacterial strain; test: MIC of erythromycin and thioridazine, alone and combined; format: cell-based
[6] = test system: a common bacterial strain; test: MIC of oxacillin alone and combined with thioridazine; format: cell-based; conditions: read-out: effective MIC
[7] = strain A, read-out: MIC of single drug (microdilution checkerboard)
[8] = strain B, read-out: MIC of single drug (microdilution checkerboard)
[9] = strain C, read-out: MIC of single drug (microdilution checkerboard)
[10] = strain D, read-out: MIC of single drug (microdilution checkerboard)
[11] = strain E, read-out: MIC of single drug (microdilution checkerboard)
[12] = strain A, each drug in the combination AMP + THIO
[13] = strain A, each drug in the combination VAN + THIO
[14] = strain B, each drug in the combination AMP + THIO
[15] = strain B, each drug in the combination VAN + THIO
[16] = strain C, each drug in the combination AMP + THIO
[17] = strain C, each drug in the combination VAN + THIO
[18] = strain D, each drug in the combination AMP + THIO
[19] = strain D, each drug in the combination VAN + THIO
[20] = strain E, each drug in the combination AMP + THIO
[21] = strain E, each drug in the combination VAN + THIO
[22] = strain A, each drug in the combination AMP + PCP
[23] = strain A, each drug in the combination VAN + PCP
[24] = strain B, each drug in the combination AMP + PCP
[25] = strain B, each drug in the combination VAN + PCP
[26] = strain C, each drug in the combination AMP + PCP
[27] = strain C, each drug in the combination VAN + PCP
[28] = strain D, each drug in the combination AMP + PCP
[29] = strain D, each drug in the combination VAN + PCP
[30] = strain E, each drug in the combination AMP + PCP
[31] = strain E, each drug in the combination VAN + PCP

Structure (SMILES) | MIC [2, 7] | MIC [2, 8] | MIC [2, 9] | MIC [2, 10] | MIC [2, 11] | Combination of drugs (MIC) [3, 12] | Combination of drugs (MIC) [3, 13] | Combination of drugs (MIC) [3, 14] | Combination of drugs (MIC) [3, 15] | Combination of drugs (MIC) [3, 16] | Combination of drugs (MIC) [3, 17] | Combination of drugs (MIC) [3, 18] | Combination of drugs (MIC) [3, 19] | Combination of drugs (MIC) [3, 20] | Combination of drugs (MIC) [3, 21] | MIC [5] | Combination of drugs (MIC) [3, 22] | Combination of drugs (MIC) [3, 23] | Combination of drugs (MIC) [3, 24] | Combination of drugs (MIC) [3, 25] | also measured
CSc1ccc2c(c1)N(CCC1CCCCN1C)c1ccccc1S2 (racemic) [THIO, thioridazine] | 32 µg/mL | 32 µg/mL | 32 µg/mL | 32 µg/mL | 32 µg/mL | 16 µg/mL | 8 µg/mL | 8 µg/mL | 32 µg/mL | AMP (4) + THIO (4) μg/ml | 4 µg/mL | 4 µg/mL | 8 µg/mL | 8 µg/mL | 2 µg/mL | 16 µg/mL |  |  |  |  | Reversal of resistance to antineoplastic agents [1]: effective in reversing resistance to a variety of antineoplastic agents; Ability to kill bacteria in vitro [4]: kill Mycobacterium tuberculosis in vitro
CC[C@H]1OC(=O)[C@H](C)[C@@H](O[C@H]2C[C@@](C)(OC)[C@@H](O)[C@H](C)O2)[C@H](C)[C@@H](O[C@@H]2O[C@H](C)C[C@H](N(C)C)[C@H]2O)[C@](C)(O)C[C@@H](C)C(=O)[C@H](C)[C@@H](O)[C@]1(C)O [Erythromycin] |  |  |  |  |  |  |  |  |  |  |  |  |  |  |  | 24 µg/mL |  |  |  |  | Erythromycin concentration needed in combination ([5]; combined with 12 μg/ml of the levorotatory isomer of thioridazine): 1 µg/mL; Erythromycin concentration needed in combination ([5]; combined with 12 μg/ml of thioridazine in racemic form): less than 8 μg/ml
CN1CCN(CCCN2c3ccccc3Sc3ccc(Cl)cc32)CC1 [PCP, prochlorperazine] | 32 µg/mL | 64 µg/mL | 32 µg/mL | 32 µg/mL | 32 µg/mL |  |  |  |  |  |  |  |  |  |  |  | 0.25 µg/mL | 16 µg/mL | 16 µg/mL | 16 µg/mL | Combination of drugs (MIC) [3, 26]: 0.5 µg/mL; Combination of drugs (MIC) [3, 27]: 8 µg/mL; Combination of drugs (MIC) [3, 28]: 8 µg/mL; Combination of drugs (MIC) [3, 29]: 8 µg/mL; Combination of drugs (MIC) [3, 30]: 16 µg/mL; Combination of drugs (MIC) [3, 31]: 8 µg/mL
CC1(C)S[C@@H]2[C@H](NC(=O)[C@H](N)c3ccccc3)C(=O)N2[C@H]1C(=O)O [ampicillin] | 32 µg/mL | 2 µg/mL | 16 µg/mL | 1 µg/mL | 128 µg/mL | 1 µg/mL |  | 0.5 µg/mL |  | AMP (4) + THIO (4) μg/ml |  | 0.25 µg/mL |  | 16 µg/mL |  |  | 32 µg/mL |  | 0.5 µg/mL |  | Combination of drugs (MIC) [3, 26]: 8 µg/mL; Combination of drugs (MIC) [3, 28]: 0.25 µg/mL; Combination of drugs (MIC) [3, 30]: 64 µg/mL
Cc1onc(-c2ccccc2)c1C(=O)N[C@@H]1C(=O)N2[C@@H]1SC(C)(C)[C@@H]2C(=O)O [oxacillin] |  |  |  |  |  |  |  |  |  |  |  |  |  |  |  |  |  |  |  |  | MIC ([6]; combined with 8 μg/ml of thioridazine): 1 µg/mL; MIC ([6]; oxacillin alone, common bacterial strain): > 256 µg/mL
CN[C@H](CC(C)C)C(=O)N[C@H]1C(=O)N[C@@H](CC(N)=O)C(=O)N[C@H]2C(=O)N[C@H]3C(=O)N[C@H](C(=O)N[C@H](C(=O)O)c4cc(O)cc(O)c4-c4cc3ccc4O)[C@H](O)c3ccc(c(Cl)c3)Oc3cc2cc(c3O[C@@H]2O[C@H](CO)[C@@H](O)[C@H](O)[C@H]2O[C@H]2C[C@](C)(N)[C@H](O)[C@H](C)O2)Oc2ccc(cc2Cl)[C@H]1O [vancomycin] |  |  |  |  |  |  | 6 µg/mL |  | 2 µg/mL |  | 64 µg/mL |  | 32 µg/mL |  | 1 µg/mL |  |  | 48 µg/mL |  | 1 µg/mL | MIC ([2]; read-out: MIC of single drug (microdilution checkerboard), strain A): 192 µg/mL; MIC ([2]; read-out: MIC of single drug (microdilution checkerboard), strain B): 4 µg/mL; MIC ([2]; read-out: MIC of single drug (microdilution checkerboard), strain C): 128 µg/mL; MIC ([2]; read-out: MIC of single drug (microdilution checkerboard), strain D): 500 µg/mL; MIC ([2]; read-out: MIC of single drug (microdilution checkerboard), strain E): 2 µg/mL; Combination of drugs (MIC) [3, 27]: 64 µg/mL; Combination of drugs (MIC) [3, 29]: 32 µg/mL; Combination of drugs (MIC) [3, 31]: 0.5 µg/mL
